Data taken from patent publication US8026282B2, “Phenoxyalkylcarboxylic acid derivatives in the treatment of irritable bowel syndrome” (Medicinova, Inc., priority 2004, dated 2011).

Legend:
[1] = target: T1, 5-LO (Homo sapiens, UniProt P09917); test: Biochemical assay 5-LO; details: Hu
T1 sequence (P09917 1-674): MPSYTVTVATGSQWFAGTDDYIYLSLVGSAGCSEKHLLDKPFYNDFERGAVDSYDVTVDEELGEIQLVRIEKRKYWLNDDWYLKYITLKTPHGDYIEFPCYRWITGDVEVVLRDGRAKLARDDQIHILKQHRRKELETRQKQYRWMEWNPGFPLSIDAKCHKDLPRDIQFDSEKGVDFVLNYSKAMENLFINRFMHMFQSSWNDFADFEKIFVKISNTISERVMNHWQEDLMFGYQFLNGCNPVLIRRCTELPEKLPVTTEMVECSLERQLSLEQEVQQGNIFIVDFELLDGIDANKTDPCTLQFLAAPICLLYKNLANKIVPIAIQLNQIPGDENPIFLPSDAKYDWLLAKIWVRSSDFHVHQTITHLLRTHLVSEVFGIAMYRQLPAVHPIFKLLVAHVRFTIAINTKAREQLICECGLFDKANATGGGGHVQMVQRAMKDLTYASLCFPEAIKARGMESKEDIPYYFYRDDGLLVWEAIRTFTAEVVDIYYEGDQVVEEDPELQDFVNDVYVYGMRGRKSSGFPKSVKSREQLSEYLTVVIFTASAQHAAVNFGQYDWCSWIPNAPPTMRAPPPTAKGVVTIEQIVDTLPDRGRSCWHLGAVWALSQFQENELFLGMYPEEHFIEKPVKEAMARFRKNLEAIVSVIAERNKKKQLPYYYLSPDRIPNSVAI

[2] = target: T2, PDE6 (Bos taurus, UniProt P11541+P23439); test: Biochemical assay PDE6; details: PDE6, Bov
T2 sequence (P11541 1-859): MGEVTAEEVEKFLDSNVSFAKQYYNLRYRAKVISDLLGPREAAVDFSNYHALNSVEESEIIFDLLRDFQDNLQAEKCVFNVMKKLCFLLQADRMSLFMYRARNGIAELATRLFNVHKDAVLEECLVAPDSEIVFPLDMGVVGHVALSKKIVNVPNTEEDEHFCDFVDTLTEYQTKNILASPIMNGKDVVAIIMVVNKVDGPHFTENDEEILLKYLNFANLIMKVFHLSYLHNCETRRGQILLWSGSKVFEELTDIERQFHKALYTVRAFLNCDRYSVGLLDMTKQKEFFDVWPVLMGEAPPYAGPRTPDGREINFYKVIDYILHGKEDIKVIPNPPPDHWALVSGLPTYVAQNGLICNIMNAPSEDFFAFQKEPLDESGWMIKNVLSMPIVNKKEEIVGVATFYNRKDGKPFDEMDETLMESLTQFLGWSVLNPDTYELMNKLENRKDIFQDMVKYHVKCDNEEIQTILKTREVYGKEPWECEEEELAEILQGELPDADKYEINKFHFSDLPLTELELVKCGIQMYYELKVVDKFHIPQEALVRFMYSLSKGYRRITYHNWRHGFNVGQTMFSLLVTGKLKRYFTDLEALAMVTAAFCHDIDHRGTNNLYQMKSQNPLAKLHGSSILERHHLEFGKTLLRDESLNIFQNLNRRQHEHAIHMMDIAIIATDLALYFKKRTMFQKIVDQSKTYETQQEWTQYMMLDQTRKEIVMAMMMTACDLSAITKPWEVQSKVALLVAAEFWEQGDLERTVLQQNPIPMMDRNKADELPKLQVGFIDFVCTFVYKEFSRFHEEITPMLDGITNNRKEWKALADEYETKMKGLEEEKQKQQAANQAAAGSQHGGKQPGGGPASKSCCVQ
T2 sequence (P23439 1-853): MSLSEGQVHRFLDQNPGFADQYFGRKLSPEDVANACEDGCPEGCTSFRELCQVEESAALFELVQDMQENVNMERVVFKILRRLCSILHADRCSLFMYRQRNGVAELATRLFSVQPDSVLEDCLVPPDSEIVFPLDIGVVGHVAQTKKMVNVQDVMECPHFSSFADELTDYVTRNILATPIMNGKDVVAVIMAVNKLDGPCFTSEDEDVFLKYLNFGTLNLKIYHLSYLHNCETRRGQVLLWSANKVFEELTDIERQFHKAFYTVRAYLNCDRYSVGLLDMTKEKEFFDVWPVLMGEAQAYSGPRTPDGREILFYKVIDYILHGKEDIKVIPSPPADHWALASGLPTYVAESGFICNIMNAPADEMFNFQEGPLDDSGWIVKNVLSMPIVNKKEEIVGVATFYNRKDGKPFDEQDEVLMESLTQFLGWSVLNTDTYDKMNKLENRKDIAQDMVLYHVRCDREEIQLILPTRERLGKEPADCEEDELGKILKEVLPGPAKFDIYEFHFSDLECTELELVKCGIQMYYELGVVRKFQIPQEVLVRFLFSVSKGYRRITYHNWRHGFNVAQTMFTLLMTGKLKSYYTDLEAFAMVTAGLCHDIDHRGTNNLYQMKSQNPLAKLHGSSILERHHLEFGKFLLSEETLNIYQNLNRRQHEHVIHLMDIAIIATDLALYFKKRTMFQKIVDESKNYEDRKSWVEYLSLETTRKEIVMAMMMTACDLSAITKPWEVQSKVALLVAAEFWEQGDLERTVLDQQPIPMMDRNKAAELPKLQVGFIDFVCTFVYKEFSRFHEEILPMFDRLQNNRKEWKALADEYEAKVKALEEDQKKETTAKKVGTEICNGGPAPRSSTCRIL

[3] = target: PLA2-I (Sus scrofa, UniProt P00592); test: Biochemical assay PLA2-I; details: Pig
Sequence of PLA2-I (P00592 23-146): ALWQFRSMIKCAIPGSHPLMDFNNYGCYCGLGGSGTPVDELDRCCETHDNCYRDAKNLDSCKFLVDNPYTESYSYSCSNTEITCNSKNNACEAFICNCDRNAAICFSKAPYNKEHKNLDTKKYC

[4] = target: Adrenergic β3 (Homo sapiens, UniProt P13945); test: Biochemical assay Adrenergic β3; type: binding; details: Adrenergic β3, Hu; for Ki: value in parentheses
Sequence of Adrenergic β3 (P13945 whole entry): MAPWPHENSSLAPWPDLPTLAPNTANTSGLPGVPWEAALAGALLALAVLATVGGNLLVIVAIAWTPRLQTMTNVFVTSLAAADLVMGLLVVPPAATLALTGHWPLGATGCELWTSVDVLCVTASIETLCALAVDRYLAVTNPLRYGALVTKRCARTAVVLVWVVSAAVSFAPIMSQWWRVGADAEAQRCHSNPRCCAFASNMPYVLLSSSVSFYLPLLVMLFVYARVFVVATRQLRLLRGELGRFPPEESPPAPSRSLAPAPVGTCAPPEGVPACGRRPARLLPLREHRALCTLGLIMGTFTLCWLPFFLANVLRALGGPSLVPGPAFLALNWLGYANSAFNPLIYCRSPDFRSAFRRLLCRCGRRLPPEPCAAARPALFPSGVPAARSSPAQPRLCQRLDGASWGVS

[5] = target: T3, LTD4 (Cavia porcellus, UniProt Q2NNR5); test: Biochemical assay LTD4; type: binding; details: LTD4, Gp; for Ki: value in parentheses
T3 sequence (Q2NNR5 1-340): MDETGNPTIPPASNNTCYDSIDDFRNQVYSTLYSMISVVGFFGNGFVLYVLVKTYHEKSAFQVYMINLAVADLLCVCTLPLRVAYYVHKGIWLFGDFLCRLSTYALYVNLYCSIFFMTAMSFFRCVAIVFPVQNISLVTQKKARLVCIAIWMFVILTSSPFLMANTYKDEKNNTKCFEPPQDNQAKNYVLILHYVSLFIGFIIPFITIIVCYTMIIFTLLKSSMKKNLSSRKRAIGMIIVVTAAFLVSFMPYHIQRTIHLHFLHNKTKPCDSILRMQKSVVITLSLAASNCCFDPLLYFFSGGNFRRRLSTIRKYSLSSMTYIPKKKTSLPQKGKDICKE

[6] = target: Opiate δ (Homo sapiens, UniProt P41143); test: Biochemical assay Opiate δ; type: binding; details: Hu; for Ki: value in parentheses
Sequence of Opiate δ (P41143 whole entry): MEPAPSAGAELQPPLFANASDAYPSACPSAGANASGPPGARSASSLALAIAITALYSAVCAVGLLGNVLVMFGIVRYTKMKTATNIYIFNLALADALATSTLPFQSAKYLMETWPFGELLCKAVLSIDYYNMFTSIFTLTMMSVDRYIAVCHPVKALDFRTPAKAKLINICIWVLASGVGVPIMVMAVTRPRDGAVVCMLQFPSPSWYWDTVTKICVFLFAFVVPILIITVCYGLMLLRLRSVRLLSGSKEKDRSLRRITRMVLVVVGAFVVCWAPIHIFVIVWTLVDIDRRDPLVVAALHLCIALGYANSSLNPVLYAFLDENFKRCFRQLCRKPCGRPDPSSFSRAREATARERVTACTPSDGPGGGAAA

CCCc1c(SCCCOc2ccc(C(C)O)c(OCCCC(=O)O)c2CCC)ccc(C(C)=O)c1O (stereo not drawn) [Compound 2]
IC50 [1]: 1610 nM
IC50 [2]: 1730 nM
IC50 [3]: 248000 nM
IC50 [4]: 1100 nM
Ki [4]: 821 nM
IC50 [5]: 5350 nM
Ki [5]: 2670 nM
IC50 [6]: 3030 nM
Ki [6]: 1070 nM

CCCc1c(SCCCOc2ccc(C(C)=O)c(OCCCC(=O)O)c2CCC)ccc(C(C)=O)c1O [Compound 1, 4-[6-acetyl-3-[3-(4-acetyl-3-hydroxy-2-propylphenylthio)propoxy]-2-propylphenoxy]butyric acid]
IC50 [1]: 1110 nM
IC50 [2]: 2050 nM
IC50 [3]: 142000 nM
IC50 [4]: 4630 nM
Ki [4]: 3470 nM
IC50 [5]: 6360 nM
Ki [5]: 3180 nM
IC50 [6]: 1040 nM
Ki [6]: 365 nM
